Experiments:
[1] = dynamic water vapor sorption/desorption (moisture sorption isotherm); type: physicochemical; conditions: for hygroscopicity (in words): comparison of moisture sorption isotherms, FIGS. 4 and 5; for water uptake: from about 3 to 90% relative humidity at about 25° C., w % = weight % of water in relation to total weight
Method: The water uptake of the crystalline forms of Linagliptin benzoate was determined by dynamic water vapor sorption/desorption. Therefore both forms were conditioned at about 28% relative humidity (RH) and the initial water content was determined by Karl-Fischer-titration. Then a moisture sorption experiment was performed with an SPSx-1μ moisture sorption analyzer (Projekt Messtechnik, Ulm) by stepwise increasing the RH in the range of about 3% RH to about 90% RH within approximately 2.5 days at 25±0.1° C.

[2] = stability upon storage at conditions of high relative humidity; type: physicochemical

SMILES | hygroscopicity (in words) ([1]; listed as crystalline form of Linagliptin benzoate of WO2010/072776 A1) | water uptake [1] | hygroscopicity (in words) [1] | stability upon storage [2]
CC#CCn1c(N2CCC[C@@H](N)C2)nc2c1c(=O)n(Cc1nc(C)c3ccccc3n1)c(=O)n2C [crystalline Linagliptin benzoate of WO2010/072776 A1] [reference compound] | quite hygroscopic | about 9.5 w % |  | 
CC#CCn1c(N2CCC[C@@H](N)C2)nc2c1c(=O)n(Cc1nc(C)c3ccccc3n1)c(=O)n2C [Linagliptin benzoate form II, Linagliptin benzoate] |  | about 2.0 w % | significantly less hygroscopic than crystalline Linagliptin benzoate of WO2010/072776 A1 | more stable than form I

— US8785455B2, “Polymorph of linagliptin benzoate” (Sandoz AG, priority 2011, dated 2014)
